Test results from patent publication US4227003A, “Bromo-A-23187 derivatives” (Eli Lilly and Company, priority 1978, dated 1980).

How the values were obtained:
[1] = test system: Staphylococcus aureus (H-Heatley strain, NRRL B-314); assay: Bioassay for antibacterial activity; assay type: cell-based
From the text: The compounds of this invention are useful antibacterial agents. In this aspect, these compounds may be used in the same manner in which the parent antibiotic is used, as described in U.S. Pat. No. 3,923,823. A bioassay for the antibacterial activity of A-23187 has been described by J. E. Westhead in Antimicrobial Agents and Chemotherapy 11 (5), 916-918 (1977). The test organism for this bioassay is Staphylococcus aureus (H-Heatley strain, NRRL B-314).

[2] = Acute toxicity in mice, intraperitoneal; conditions: mouse, in vivo, ip
Method: The compounds of the present invention are, in general, less toxic than the parent antibiotic. Table II summarizes the acute toxicities of representative compounds in mice, expressed as LD50, when the compounds are administered intraperitoneally.

[3] = biological target: cation transport ATPase in liver mitochondria; assay: In vitro inhibition of cation transport ATPase in liver mitochondria; assay type: biochemical
From the text: In yet another aspect, the compounds of this invention are active as inhibitors of the enzyme ATPase. ATPase, an alkali-metal-sensitive enzyme found in cell membranes, is involved in the energy necessary for active transport. "Active transport" refers to the energy-requiring series of operations whereby intracellular and extracellular fluids maintain their compositions. Inhibitors of ATPase reduce the energy required for active transport. Table III summarizes the results of in vitro tests measuring inhibition of cation transport ATPase in liver mitochondria [measured as half effective concentration (Ic50) in mcg/ml].

[4] = cited from earlier work
[5] = Pfeiffer and Lardy, Biochemistry 15, 935 (1976)

Row | Structure (SMILES) | Bioassay [1] | LD50 [2] | half effective concentration (Ic50), ATPase induced by CaCl2 [3] | half effective concentration (Ic50), ATPase induced by K^+ monazomycin [3] | discrimination for divalent over monovalent cations [4, 5] | transport of Mg^2+ versus Ca^2+ [4, 5] | selectivity for transport of divalent over monovalent cations ([4]; background, among approximately 100 known ionophores)
1 | CNc1ccc2oc(CC3OC4(CCC3C)OC(C(C)C(=O)c3cc(Br)c(Br)[nH]3)C(C)CC4C)nc2c1C(=O)O (stereo not drawn) [23,24-dibromo-A-23187 (free acid), 5-(methylamino)-2-[[3β,9α,11β-trimethyl-8-[1α-methyl-2-oxo-2-(4,5-dibromo-1H-pyrrol-2-yl)ethyl]-1,7-dioxaspiro[5.5]undec-2β-yl]methyl]-4-benzoxazolecarboxylic acid] | 1105 µg/mL | 79.8 mg/kg | 0.8 µg/mL | 0.1 µg/mL |  |  | 
2 | CNc1ccc2oc(CC3OC4(CCC3C)OC(C(C)C(=O)c3ccc[nH]3)C(C)CC4C)nc2c1C(=O)O (centres unmarked) [A-23187 (free acid), reference compound] | 1060 µg/mL |  | 0.5 µg/mL | 0.5 µg/mL | not complete | transports Mg^2+ with a similar efficiency to Ca^2+ | substantially selective for the transport of divalent over monovalent cations
3 | CNc1ccc2oc(CC3OC4(CCC3C)OC(C(C)C(=O)c3cc(Br)c[nH]3)C(C)CC4C)nc2c1C(=O)O (stereo not drawn) [23-bromo-A-23187 (free acid), 5-(methylamino)-2-[[3β,9α,11β-trimethyl-8-[1α-methyl-2-oxo-2-(4-bromo-1H-pyrrol-2-yl)ethyl]-1,7-dioxaspiro[5.5]undec-2β-yl]methyl]-4-benzoxazolecarboxylic acid] | 1766 µg/mL | 23.7 mg/kg | > 10 µg/mL | 0.1 µg/mL |  |  | 
